Here are results for four compounds from patent publication US20230149323A1, “INHIBITORS OF THE INTERACTION OF THE UPAR/FPRS RECEPTORS” (ORPHA BIOTECH S.R.L., priority 2020, published 2023).

Molecules are shown by their SMILES. Entries after “also recorded” stand apart in the source; their conditions may differ.

Assay [1] deals with BJ cells. Put plainly: Cell adhesion assay to VN on BJ cells. The assay is classed as cell-based, human. As to conditions: FIG. 2(B): BJ cells treated with compounds at 50 µM vs DMSO vehicle (100%). The method, then: The cell line BJ (ATCC CRL2522) was used as model of human skin fibroblasts. The cells were cultivated in Dulbecco’s Modified Eagle Medium (DMEM) containing fetal bovine serum at 10% (FBS) at 37° C. with CO2 at 5%.
The plates with 96 wells (Nunc, Roskilde, Denmark) were covered with VN (1 µg) or with 100 µl of 1% BSA deactivated with heat in PBS, as negative control, and incubated during the entire night at 4° C. The plates were then blocked 1 hour at ambient temperature with 1% BSA deactivated with heat in 1% PBS. The cells were detached with PBS containing 2 mM of EDTA and washed with DMEM lacking serum, they were counted, plated in the wells with a density of 10^5 cells/well and incubated for 1 hour at 37° C. in the presence of or in the absence of the selected compounds. The cells were then fixed with paraformaldehyde at 3% in PBS for 10 minutes and then incubated with methanol at 2% for 10 minutes. The cells were finally colored for 10 minutes with 0.5% crystal violet in 20% methanol, eluted with 0.1 mol/l of sodium citrate in 50% ethanol (pH 4.2) and the absorbance was measured at 540 nm with a spectrophotometer.

Assay [2] deals with T1, bond of purified uPAR to the VN (Homo sapiens, UniProt Q03405).
T1 construct: Soluble recombinant uPAR (suPAR; R&D System, Minneapolis, MN, USA); purchased R&D System
T1 sequence (Q03405 23-305 limits assumed): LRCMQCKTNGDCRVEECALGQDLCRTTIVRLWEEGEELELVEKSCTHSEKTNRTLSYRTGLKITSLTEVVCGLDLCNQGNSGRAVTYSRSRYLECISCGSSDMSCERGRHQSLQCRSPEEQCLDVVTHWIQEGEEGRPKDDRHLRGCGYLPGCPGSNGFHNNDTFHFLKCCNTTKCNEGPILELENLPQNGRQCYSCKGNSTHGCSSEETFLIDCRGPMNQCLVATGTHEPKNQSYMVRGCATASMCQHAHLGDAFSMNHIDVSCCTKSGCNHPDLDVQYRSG
Put plainly: Bond of soluble biotinylated uPAR to immobilized VN (ELISA). The assay is classed as binding. As to conditions: FIG. 2(A): compounds at 50 µM vs DMSO vehicle (100%). As to the method:
Soluble recombinant uPAR (suPAR; R&D System, Minneapolis, MN, USA) was biotinylated and purified with the biotinylation module of the proteins ECL Amersham according to the producer’s instructions (GE Healthcare, Buckinghamshire, UK).
The (high-binding) plates with 96 wells (Corning, New York, USA) were covered with 0.5 µg/well of VN (Becton Dickinson Biosciences, Franklin Lakes, NJ, USA) diluted in PBS (0.08 M NaCl, 0.002 M KCl, 0.0115 M Na2HPO4, 0.002 M KH2PO4, pH 7.2) or bovine serum albumin (BSA), as negative control, and incubated at 4° C. for the entire night. After a washing in PBS, the residual bond sites were blocked with 200 µL of BSA at 1% in PBS, for 1 hour at ambient temperature. 25 nmol/L of biotinylated s-uPAR (diluted in PBS, 1 mg/mL of BSA), on its own or in the presence of selected compounds, were placed in the covered wells. The plates were maintained at 4° C. for 1 hour, washed with PBS containing 0.1% Tween 20 and then avidin marked with peroxidase (Amersham), diluted 1:1.500 in PBS containing 10 mg/mL of BSA. After further washings, the substrate of peroxidase o-phenylenediamine (Sigma, St. Louis, MO, USA) was added and left to react for 3 minutes. The reactions were stopped with 1 mol/L H2SO4 and the product was measured at 492 nm by using an automated plate reader (Bio-Rad, Munich, Germany).

For `Cc1ccc(C(C)(C)c2ccc(C)cc2O)c(O)c1` [Compound 3, 6,6′-(propan-2,2-diyl)bis(3-methylphenol)], the “inhibitory activity against cell adhesion to the VN” value (“inhibitory activity … to the VN” for short) in assay [1] is given as “greater inhibitory activity”. Moreover, the “inhibitory activity against the interaction of the uPAR with the VN in vitro” value (shortened to “inhibitory activity … in vitro”) in assay [2] was “greater inhibitory activity”.

For `CCCc1cc(-c2ccc(O)c(CCC)c2)ccc1O` [Compound 19, 3,3′-dipropyl[1,1′-biphenyl]-4,4′-diol], the “inhibitory activity … to the VN” value in assay [1] is “greater inhibitory activity; also recorded: considerable contribution”. The “inhibitory activity … in vitro” value in assay [2] was “greater inhibitory activity”.

For the compound `Cc1cc(Cc2cc(C)cc(C(C)(C)C)c2O)c(O)c(C(C)(C)C)c1` [Compound 20, 6,6′-methylenebis(2-(tert-butyl)-4-methylphenol)], in assay [1], the “inhibitory activity … to the VN” value is listed as “greater inhibitory activity; also recorded: considerable contribution”. The “inhibitory activity … in vitro” value in assay [2] was “greater inhibitory activity”.

Take `CC(C)(C)c1cc(Cl)c(O)c(Cc2cc(C(C)(C)C)cc(Cl)c2O)c1` [Compound 23, 6,6′-methylenebis(4-(tert-butyl)-2-chlorophenol)]: the “inhibitory activity … to the VN” value in assay [1] is recorded as “greater inhibitory activity; also recorded: considerable contribution”. The “inhibitory activity … in vitro” value in assay [2] is “greater inhibitory activity”.
